One test addresses T1, KIFC1 (Homo sapiens, UniProt Q9BW19, T368P).
T1 construct: motor domain N307-C663 with PCR-induced T368P (loop L2, disordered), pFBOH-LIC, Hi-Five insect cells, Ni-NTA purified
T1 sequence (Q9BW19 307-663 T368P): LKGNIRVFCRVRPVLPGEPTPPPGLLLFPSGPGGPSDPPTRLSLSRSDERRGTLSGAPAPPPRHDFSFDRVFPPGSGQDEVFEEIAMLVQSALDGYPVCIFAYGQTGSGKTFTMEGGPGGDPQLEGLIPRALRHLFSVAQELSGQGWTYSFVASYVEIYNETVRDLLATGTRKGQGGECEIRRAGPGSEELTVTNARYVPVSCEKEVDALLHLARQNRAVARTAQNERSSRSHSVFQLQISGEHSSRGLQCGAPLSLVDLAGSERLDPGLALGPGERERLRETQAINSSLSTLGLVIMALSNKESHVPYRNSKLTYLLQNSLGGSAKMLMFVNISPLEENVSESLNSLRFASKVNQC
The test is described as follows: X-ray crystal structure, […] A. The settings on record: Mg2+; nucleotide-binding cleft; 5-fold molar excess Mg-ADP added; pH 7.5; 18 °C.

The next test addresses T2, KIFC3 (Homo sapiens, UniProt Q9BVG8).
T2 construct: motor domain K443-L770, p28a-LIC (EF442785 is printed beside the vector), E. coli BL21-CodonPlus (DE3)-RIL, HisTrap purified
T2 sequence (Q9BVG8 443-770): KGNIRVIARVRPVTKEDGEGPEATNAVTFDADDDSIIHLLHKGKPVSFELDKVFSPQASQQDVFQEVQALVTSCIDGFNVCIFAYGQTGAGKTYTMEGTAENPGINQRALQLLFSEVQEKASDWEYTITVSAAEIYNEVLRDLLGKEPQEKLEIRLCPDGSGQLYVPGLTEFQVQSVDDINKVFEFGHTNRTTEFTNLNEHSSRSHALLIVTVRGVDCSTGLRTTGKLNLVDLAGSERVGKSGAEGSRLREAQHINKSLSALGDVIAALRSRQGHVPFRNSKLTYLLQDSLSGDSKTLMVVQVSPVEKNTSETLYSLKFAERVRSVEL
The experiment in a line: X-ray crystal structure, […] A. To be noted: Mg2+; nucleotide-binding cleft; no added nucleotide stated; pH 7.5; 18 °C.

In the case of `Nc1ncnc2c1ncn2[C@@H]1O[C@H](COP(=O)(O)OP(=O)(O)O)[C@@H](O)[C@H]1O` [ADP], the “X-ray crystal structure, 2.25 A” value on KIFC1 was “Both proteins were crystallized bound to Mg-ADP and are reported here for the first time”. For the same compound, at KIFC3, the “X-ray crystal structure, 1.85 A” value is “Both proteins were crystallized bound to Mg-ADP and are reported here for the first time”.

For the origin of these results see PMC5680195, “Structural basis of small molecule ATPase inhibition of a human mitotic kinesin motor protein” (Scientific Reports, 2017).
